Like-named read-outs stand apart in the source and are kept apart here.
What was measured:
[1] = Solubility measurement (DMSO solution precipitation method); type: physicochemical; conditions: aqueous buffer, kinetic from dmso stock, ambient temperature
Procedure: The DMSO solution is diluted with an aqueous medium (McIlvaine buffer with pH=4.5 or 6.8) to a final concentration of 250 μM. After 24 h of shaking at ambient temperature a potentially formed precipitate is removed by filtration. The concentration of the test compound in the filtrate is determined by LC-UV methods by calibrating the signal to the signal of a reference solution with complete dissolution of the test compound in acetonitrile/water (1:1) with known concentration.

KRAS (G12D)::SOS1 = target: T1, KRAS (G12D)::SOS1 (Homo sapiens, UniProt P01116, G12D); experiment: KRAS::SOS1 AlphaScreen binding assay, KRAS G12D
T1 construct: KRAS (G12D) 1-169, N-terminal 6His-tag, C-terminal avi-tag; 6His-tag (N); purchased Xtal BioStructures, Inc. (KRAS G12D); Viva Biotech Ltd (SOS1)
Procedure: (§1) Low IC50 values in this assay setting are indicative of strong inhibition of protein-protein interaction between SOS1 and KRAS:
(§2) These assays measure the inhibitory effect of compounds on KRAS mutant protein-protein interactions using the Alpha Screen technology by Perkin Elmer.
(§3) For the chosen highest assay concentration of 100 μM, 150 nL of compound solution are transferred from a 10 mM DMSO compound stock solution. A series of eleven fivefold dilutions per compound are transferred to the assay plate, compound dilutions are tested in duplicates. DMSO are added as backfill to a total volume of 150 nL.
(§4) The assays run on a fully automated robotic system in a darkened room below 100 Lux. To 150 nl of compound dilution 10 μl of a mix including KRAS mutant protein, SOS1 (final assay concentrations see above) and GDP nucleotide (Sigma G7127; final assay concentration 10 μM) in assay buffer (1×PBS, 0.1% BSA, 0.05% Tween 20) are added into columns 1-24. After 30 minutes incubation time 5 μl of Alpha Screen bead mix in assay buffer are added into columns 1-23.
(§5) Plates are kept at room temperature in a darkened incubator. After an additional 60 minutes incubation time the signal is measured in a PerkinElmer Envision HTS Multilabel Reader using the AlphaScreen specs from PerkinElmer.
(§6) IC50 values are calculated and analyzed with Boehringer Ingelheim's MEGALAB IC50 application using a 4 parametric logistic model.

KRAS G12D Ba/F3 cells = KRAS G12D Ba/F3 cells (Homo sapiens, UniProt P01116, G12D, cells depend on it); experiment: Ba/F3 proliferation assay, KRAS G12D; type: cell-based; conditions: 72 h, AlamarBlue; read-out: KRAS G12D Ba/F3 IC50
Procedure: (§7) To generate KRASG12-dependent Ba/F3 models, Ba/F3 cells are transduced with retroviruses containing vectors that harbor KRASG12 isoforms. Platinum-E cells (Cell Biolabs) are used for retrovirus packaging. Retrovirus is added to Ba/F3 cells. To ensure infection, 4 μg/mL polybrene is added and cells are spinfected. […] Cells with an infection efficiency of 10% to 20% are further cultivated and puromycin selection with 1 μg/mL is initiated. As a control, parental Ba/F3 cells are used to show selection status. Selection is considered successful when parental Ba/F3 cells cultures died. To evaluate the transforming potential of KRASG12 mutations, the growth medium is no longer supplemented with IL-3. Ba/F3 cells harboring the empty vector are used as a control. Approximately ten days before conducting the experiments, puromycin is left out. […] All treatments are performed in technical duplicates. […] AlamarBlue™(ThermoFisher), a viability stain, is added and fluorescence measured in the PerkinElmer Envision HTS Multilabel Reader. The raw data are imported into and analyzed with the Boehringer Ingelheim proprietary software MegaLab (curve fitting based on the program PRISM, GraphPad Inc.).

KRAS G12C Ba/F3 cells = KRAS G12C Ba/F3 cells (Homo sapiens, UniProt P01116, G12C, cells depend on it); experiment: Ba/F3 proliferation assay, KRAS G12C; type: cell-based; conditions: 72 h, AlamarBlue; read-out: KRAS G12C Ba/F3 IC50
Procedure: as §7

CYP3A4 = target: T2, CYP3A4 (Homo sapiens, UniProt P08684); experiment: Mechanism based inhibition of CYP3A4 assay (MBI 3A4); type: in vitro ADME; conditions: 25 uM, hydroxy-midazolam formation after 30 min preincubation relative to 0 min, human liver microsomes
T2 construct: assayed in human liver microsomes (0.02 mg/mL) with midazolam (15 μM) as a substrate; from tissue; host or cells: human liver microsomes
Procedure: After preincubation, the incubate is diluted 1:10 and the substrate midazolam is added for the main incubation (15 min). The main incubation is quenched with acetonitrile and the formation of hydroxy-midazolam is quantified via LC/MS-MS. The formation of hydroxy-midazolam from the 30 min preincubation relative to the formation from the 0 min preincubation is used as a readout. Values of less than 100% mean that the substrate midazolam is metabolized to a lower extent upon 30 min preincubation compared to 0 min preincubation. In general low effects upon 30 min preincubation are desired (corresponding to values close to 100%/not different to the values determined with water control).

KRAS (G12C)::SOS1 = target: T3, KRAS (G12C)::SOS1 (Homo sapiens, UniProt P01116, C118S/C51S/C80L/G12C); experiment: KRAS::SOS1 AlphaScreen binding assay, KRAS G12C
T3 construct: KRAS (G12C) 1-169, N-terminal 6His-tag for purification, cleaved off; 6His-tag (N, cleaved yes)
Procedure: as §1, §2, §3, §4, §5, §6

Caco-2 assay = type: in vitro ADME; conditions: human; for Papp A→B at 90 min, 10 μM: Caco-2, apical to basolateral, pH 7.4, read-out: Caco PappAB; for efflux ratio at 90 min, 10 μM: Caco-2, pH 7.4, efflux ratio PappBA/PappAB, read-out: Caco ER
Text: The assay provides information on the potential of a compound to pass the cell membrane, on the extent of oral absorption as well as on whether the compound is actively transported by uptake and/or efflux transporters. Permeability measurements across polarized, confluent Caco-2 cell monolayers grown on permeable filter supports (Corning, catalog #3391) are used. […] The receiver and donor compartments contain 0.25% bovine serum albumine (BSA) in assay buffer. Passive diffusion and/or active transport of compounds across the monolayer is measured in both apical to basolateral (a-b) and basolateral to apical (b-a) direction. a-b permeability (PappAB) represents drug absorption from the intestine into the blood and b-a permeability (PappBA) drug secretion from the blood back into the intestine via both passive permeability as well as active transport mechanisms mediated by efflux and uptake transporters that are expressed on the Caco-2 cells. After a pre-incubation of 25-30 min at 37° C., at predefined time points (0, 30, 60 and 90 min), samples were taken from the receiver and donor compartment, respectively. Concentrations of test compounds in samples were measured by HPLC/MS/MS, samples from the donor compartment were diluted 1:50 (v:v) with assay buffer, samples from receiver compartment were measured without dilution.
Apparent permeabilities in a-b (PappAB) and b-a (PappBA) directions are calculated according to the formula:
[formula] • Vrec [mL]: buffer volume in receiver compartment • Cdon [μmol/mL]: concentration of test compound in donor compartment at t=0 • ΔCrec: difference between concentrations of test compound in receiver compartment at start and end of incubation time • Δt: Incubation time • Vrec·ΔCrec/Δt [μmol/min]: Amount of compound transferred to receiver compartment per time • A [cm^2]: filter surface
Caco-2 efflux ratios (ER) are calculated as the ratio of PappBA/PappAB.

[2] = system: NCI-H358 cells (NSCLC, G12C); experiment: NCI-H358 CTG proliferation assay (120 h), assay 2; type: cell-based; conditions: Homo sapiens, CellTiter-Glo, 384-well, 200 cells per well
Procedure: NCI-1H358 cells (ATCC No. CRL-5807) are dispensed into white bottom opaque 96 well plates (Perkin Elmer cat no. 5680) at a density of 2000 cells per well in 100 μL RPM 1-1640 ATCC-Formulation (Gibco #A10491)+10% FCS (fetal calf serum) (assay 1) or into black 384-well plates, flat and clear bottom (Greiner, PNr. 781091) at a density of 200 cells per well in 60 μl RPMI-1640 ATCC-Formulation (Gibco #A10491)+10% FCS (fetal calf serum) (assay 2). […] Compounds (10 mM stock in DMSO) are added at logarithmic dose series using the HP Digital Dispenser D300 (Tecan) (assay 1) or the ECHO acoustic liquid handler system (Beckman Coulter) (assay 2), normalizing for added DMSO and including DMSO controls. For the TO time point measurement, untreated cells are analyzed at the time of compound addition. Plates are incubated for 120 h, and cell viability is measured using CellTiter-Glo luminescent cell viability reagent (Promega product code G7570). Viability (stated as percent of control) is defined as relative luminescence units RLU of each well divided by the RLU of cells in DMSO controls. IC50 values are determined from viability measurements by non-linear regression using a four-parameter model.

[3] = McIlvaine buffer pH 4.5, 24 h, read-out: solubility pH 4.5
[4] = McIlvaine buffer pH 6.8, 24 h, read-out: solubility pH 6.8

T2 sequence (P08684 whole entry): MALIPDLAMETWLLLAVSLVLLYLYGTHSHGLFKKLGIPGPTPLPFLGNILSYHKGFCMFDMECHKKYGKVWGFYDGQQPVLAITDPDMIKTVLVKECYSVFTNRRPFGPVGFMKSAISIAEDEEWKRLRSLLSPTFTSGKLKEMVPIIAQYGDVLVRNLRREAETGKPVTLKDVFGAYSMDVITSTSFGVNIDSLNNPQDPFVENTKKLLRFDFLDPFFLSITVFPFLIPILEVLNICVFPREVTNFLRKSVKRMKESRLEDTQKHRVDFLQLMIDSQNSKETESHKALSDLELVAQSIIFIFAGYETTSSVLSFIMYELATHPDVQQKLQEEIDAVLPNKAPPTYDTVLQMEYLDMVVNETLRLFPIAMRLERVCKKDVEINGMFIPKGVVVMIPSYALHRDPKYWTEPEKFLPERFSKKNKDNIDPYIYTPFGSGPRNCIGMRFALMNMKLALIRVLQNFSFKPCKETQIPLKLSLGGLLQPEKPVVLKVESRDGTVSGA
KRAS G12D Ba/F3 cells, sequence (P01116 whole entry G12D, canonical isoform): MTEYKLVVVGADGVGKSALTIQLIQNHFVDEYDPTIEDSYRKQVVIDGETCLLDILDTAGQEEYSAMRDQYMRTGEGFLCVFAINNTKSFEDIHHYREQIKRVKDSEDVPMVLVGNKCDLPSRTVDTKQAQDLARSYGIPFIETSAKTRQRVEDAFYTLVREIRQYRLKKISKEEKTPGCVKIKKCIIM
T1 sequence (P01116 1-169 isoform P01116-2 G12D): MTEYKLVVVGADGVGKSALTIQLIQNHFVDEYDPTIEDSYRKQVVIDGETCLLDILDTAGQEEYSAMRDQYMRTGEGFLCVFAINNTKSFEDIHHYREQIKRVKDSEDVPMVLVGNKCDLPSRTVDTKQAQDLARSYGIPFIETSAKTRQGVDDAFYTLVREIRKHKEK
KRAS G12C Ba/F3 cells, sequence (P01116 whole entry G12C): as the sequence (P01116 whole entry G12D, canonical isoform) above, with D12C counted along it
T3 sequence (P01116 1-169 isoform P01116-2 G12C/C51S/C80L/C118S): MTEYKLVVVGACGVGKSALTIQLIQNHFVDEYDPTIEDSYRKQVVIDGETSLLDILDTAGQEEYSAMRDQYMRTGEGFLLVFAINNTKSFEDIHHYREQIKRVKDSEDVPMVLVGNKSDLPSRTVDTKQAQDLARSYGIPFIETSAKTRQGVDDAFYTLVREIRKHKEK

Structure (SMILES) | solubility at 24 h [1, 3] [µg/mL] | solubility at 24 h [1, 4] [µg/mL] | IC50 (KRAS (G12D)::SOS1) [nM] | GI50 (KRAS G12D Ba/F3 cells) [nM] | GI50 (KRAS G12C Ba/F3 cells) [nM] | MBI 3A4 (CYP3A4) [%] | IC50 (KRAS (G12C)::SOS1) [nM] | Papp A→B at 90 min, 10 μM (Caco-2 assay) [×10⁻⁶ cm/s] | efflux ratio at 90 min, 10 μM (Caco-2 assay) | IC50 [2] [nM]
C[C@H](Oc1nccc(-c2noc3c2CCC[C@@]32CCCc3sc(N)c(C#N)c32)n1)[C@@H]1CCCN1C [IIb-6] | > 110 | > 110 | 2 | 13 | 19 | 52 | 4 | 21 | 1.3 | 402
C[C@H](Oc1nccc(-c2onc3c2CCC[C@@]32CCCc3sc(N)c(C#N)c32)n1)[C@@H]1CCCN1C [Ib-1] | > 110 | > 110 | 2 | 24 | 51 | 54 | 3 | 26 | 1.3 | 1440
